Measured values: ChEMBL document CHEMBL5696442, “Discovery of type II inhibitors of TGFβ-activated kinase 1 (TAK1) and mitogen-activated protein kinase kinase kinase kinase 2 (MAP4K2)” (J Med Chem, 2015)
The source made the active and inactive calls. The calls are words filed in the database; no cut-off is given here.

Columns and labels:
[1] = molecular target: Tyrosine-protein kinase Blk (Homo sapiens) (UniProt P51451); assay: Inhibition of BLK (unknown origin) at 1 uM by Ambit Kinomescan binding assay relative to control; values are per cent of control
[2] = molecular target: Activated CDC42 kinase 1 (Homo sapiens) (UniProt Q07912); assay: Inhibition of TNK2 (unknown origin) at 1 uM by Ambit Kinomescan binding assay relative to control
[3] = molecular target: Glycogen synthase kinase-3 beta (Homo sapiens) (UniProt P49841); assay: Inhibition of GSK3B K2 labeling site in human Huh-7 cells at 1 uM by KiNativ Profiling analysis relative to control; format: cell-based
[4] = molecular target: Wee1-like protein kinase (Homo sapiens) (UniProt P30291); assay: Inhibition of Wee1 K2 labeling site in human Huh-7 cells at 10 uM by KiNativ Profiling analysis relative to control; format: cell-based
[5] = molecular target: Mitogen-activated protein kinase 3 (Homo sapiens) (UniProt P27361); assay: Inhibition of Erk1 Lys2 labeling site harbouring DLKPSNLLINTTCDLK in human A-375 cells at 0.05 uM by KiNativ Profiling analysis relative to control; format: cell-based
[6] = molecular target: Serine/threonine-protein kinase pim-3 (Homo sapiens) (UniProt Q86V86); assay: Inhibition of PIM3 (unknown origin) at 10 uM by Ambit Kinomescan binding assay
[7] = molecular target: Cyclin-dependent kinase 5 (Homo sapiens) (UniProt Q00535); assay: Inhibition of CDK5 K2 labeling site harbouring DLKPQNLLINR in human Huh-7 cells at 1 uM by KiNativ Profiling analysis relative to control; format: cell-based
[8] = tested on: Receptor-type tyrosine-protein kinase FLT3 (Homo sapiens), P36888 [D835H]; assay: Inhibition of FLT3 D835H mutant (unknown origin) at 10 uM by Ambit Kinomescan binding assay relative to control
[9] = molecular target: T1, Atrial natriuretic peptide receptor 2 (Homo sapiens) (UniProt P20594); assay: Inhibition of ANPb Lys2 labeling site in human A-375 cells at 0.5 uM by KiNativ Profiling analysis relative to control; format: cell-based
T1 sequence (whole entry): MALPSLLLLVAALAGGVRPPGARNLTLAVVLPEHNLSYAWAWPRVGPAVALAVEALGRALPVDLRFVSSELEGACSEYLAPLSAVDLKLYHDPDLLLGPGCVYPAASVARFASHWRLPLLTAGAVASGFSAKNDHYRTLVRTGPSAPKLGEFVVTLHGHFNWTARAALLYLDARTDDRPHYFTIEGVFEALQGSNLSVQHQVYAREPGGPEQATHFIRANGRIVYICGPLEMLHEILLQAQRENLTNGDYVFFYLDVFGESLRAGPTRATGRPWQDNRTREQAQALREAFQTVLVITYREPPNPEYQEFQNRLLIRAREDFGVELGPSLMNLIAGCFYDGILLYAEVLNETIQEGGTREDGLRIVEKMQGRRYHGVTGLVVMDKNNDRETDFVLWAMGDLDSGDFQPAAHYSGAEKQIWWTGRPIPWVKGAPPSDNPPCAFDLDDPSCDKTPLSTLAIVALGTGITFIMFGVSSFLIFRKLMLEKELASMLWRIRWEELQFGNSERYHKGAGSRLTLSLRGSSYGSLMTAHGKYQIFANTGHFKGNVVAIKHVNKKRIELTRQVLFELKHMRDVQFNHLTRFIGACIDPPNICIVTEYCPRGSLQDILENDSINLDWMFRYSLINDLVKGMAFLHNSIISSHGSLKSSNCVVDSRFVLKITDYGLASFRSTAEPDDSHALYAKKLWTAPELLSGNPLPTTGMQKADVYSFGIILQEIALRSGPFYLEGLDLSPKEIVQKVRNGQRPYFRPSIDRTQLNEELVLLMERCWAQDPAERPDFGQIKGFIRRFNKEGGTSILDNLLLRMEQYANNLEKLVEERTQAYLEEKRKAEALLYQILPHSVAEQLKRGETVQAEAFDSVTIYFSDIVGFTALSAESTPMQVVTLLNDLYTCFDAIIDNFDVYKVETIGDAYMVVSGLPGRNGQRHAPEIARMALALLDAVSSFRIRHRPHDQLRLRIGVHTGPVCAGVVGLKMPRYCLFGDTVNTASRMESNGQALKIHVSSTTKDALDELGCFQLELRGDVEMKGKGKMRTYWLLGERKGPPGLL

[10] = molecular target: T2, Phosphatidylinositol 5-phosphate 4-kinase type-2 beta (Homo sapiens) (UniProt P78356); assay: Inhibition of PIP5K2B (unknown origin) at 10 uM by Ambit Kinomescan binding assay
T2 sequence (whole entry): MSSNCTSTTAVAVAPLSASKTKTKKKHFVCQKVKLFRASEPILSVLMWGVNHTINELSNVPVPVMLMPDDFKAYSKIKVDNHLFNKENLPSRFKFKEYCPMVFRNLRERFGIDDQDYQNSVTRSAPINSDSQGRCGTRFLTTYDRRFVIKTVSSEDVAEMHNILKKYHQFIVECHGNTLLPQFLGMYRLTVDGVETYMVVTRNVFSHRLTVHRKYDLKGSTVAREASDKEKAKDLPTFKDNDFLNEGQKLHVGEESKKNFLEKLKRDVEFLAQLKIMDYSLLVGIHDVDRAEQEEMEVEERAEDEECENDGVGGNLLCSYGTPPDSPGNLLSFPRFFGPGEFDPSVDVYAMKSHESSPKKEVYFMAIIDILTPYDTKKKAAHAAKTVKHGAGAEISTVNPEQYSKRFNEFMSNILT

[11] = molecular target: BMP-2-inducible protein kinase (Homo sapiens) (UniProt Q9NSY1); assay: Inhibition of BIKE (unknown origin) at 10 uM by Ambit Kinomescan binding assay
[12] = molecular target: Casein kinase II subunit alpha (Homo sapiens) (UniProt P68400); assay: Inhibition of CSNK2A1 (unknown origin) at 10 uM by Ambit Kinomescan binding assay
[13] = molecular target: Vascular endothelial growth factor receptor 3 (Homo sapiens) (UniProt P35916); assay: Inhibition of FLT4 (unknown origin) at 10 uM by Ambit Kinomescan binding assay relative to control
[14] = molecular target: Serine/threonine-protein kinase WNK2 (Homo sapiens) (UniProt Q9Y3S1); assay: Inhibition of Wnk2 Lys2 labeling site in human Huh-7 cell lysate at 1 uM by KiNativ Profiling analysis relative to control; format: subcellular
[15] = molecular target: Serine/threonine-protein kinase WNK2 (Homo sapiens) (UniProt Q9Y3S1); assay: Inhibition of Wnk2 ACT labeling site in human Huh-7 cell lysate at 1 uM by KiNativ Profiling analysis relative to control; format: subcellular
[16] = molecular target: Aurora kinase B (Homo sapiens) (UniProt Q96GD4); assay: Inhibition of AurB ATP labeling site in human Huh-7 cell lysate at 1 uM by KiNativ Profiling analysis relative to control; format: subcellular
[17] = molecular target: Casein kinase I isoform delta (Homo sapiens) (UniProt P48730); assay: Inhibition of CK1delta Lys2 labeling site in human Huh-7 cell lysate at 1 uM by KiNativ Profiling analysis relative to control; format: subcellular
[18] = molecular target: Serine/threonine-protein kinase Nek6 (Homo sapiens) (UniProt Q9HC98); assay: Inhibition of NEK6 Lys2 labeling site harbouring DIKPANVFITATGVVK in human Huh-7 cell lysate at 1 uM by KiNativ Profiling analysis relative to control; format: subcellular
Serine/threonine-protein kinase Nek6 (Homo sapiens), sequence (Q9HC98 whole entry): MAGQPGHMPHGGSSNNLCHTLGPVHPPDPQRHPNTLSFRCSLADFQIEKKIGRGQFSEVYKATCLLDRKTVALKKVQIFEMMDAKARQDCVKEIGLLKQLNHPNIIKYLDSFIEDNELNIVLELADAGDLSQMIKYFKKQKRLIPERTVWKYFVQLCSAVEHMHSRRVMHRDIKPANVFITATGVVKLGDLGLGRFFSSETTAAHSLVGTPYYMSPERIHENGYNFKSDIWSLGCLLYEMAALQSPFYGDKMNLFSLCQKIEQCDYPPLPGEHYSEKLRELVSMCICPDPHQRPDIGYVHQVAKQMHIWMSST

Serine/threonine-protein kinase WNK2 (Homo sapiens), sequence (Q9Y3S1 whole entry): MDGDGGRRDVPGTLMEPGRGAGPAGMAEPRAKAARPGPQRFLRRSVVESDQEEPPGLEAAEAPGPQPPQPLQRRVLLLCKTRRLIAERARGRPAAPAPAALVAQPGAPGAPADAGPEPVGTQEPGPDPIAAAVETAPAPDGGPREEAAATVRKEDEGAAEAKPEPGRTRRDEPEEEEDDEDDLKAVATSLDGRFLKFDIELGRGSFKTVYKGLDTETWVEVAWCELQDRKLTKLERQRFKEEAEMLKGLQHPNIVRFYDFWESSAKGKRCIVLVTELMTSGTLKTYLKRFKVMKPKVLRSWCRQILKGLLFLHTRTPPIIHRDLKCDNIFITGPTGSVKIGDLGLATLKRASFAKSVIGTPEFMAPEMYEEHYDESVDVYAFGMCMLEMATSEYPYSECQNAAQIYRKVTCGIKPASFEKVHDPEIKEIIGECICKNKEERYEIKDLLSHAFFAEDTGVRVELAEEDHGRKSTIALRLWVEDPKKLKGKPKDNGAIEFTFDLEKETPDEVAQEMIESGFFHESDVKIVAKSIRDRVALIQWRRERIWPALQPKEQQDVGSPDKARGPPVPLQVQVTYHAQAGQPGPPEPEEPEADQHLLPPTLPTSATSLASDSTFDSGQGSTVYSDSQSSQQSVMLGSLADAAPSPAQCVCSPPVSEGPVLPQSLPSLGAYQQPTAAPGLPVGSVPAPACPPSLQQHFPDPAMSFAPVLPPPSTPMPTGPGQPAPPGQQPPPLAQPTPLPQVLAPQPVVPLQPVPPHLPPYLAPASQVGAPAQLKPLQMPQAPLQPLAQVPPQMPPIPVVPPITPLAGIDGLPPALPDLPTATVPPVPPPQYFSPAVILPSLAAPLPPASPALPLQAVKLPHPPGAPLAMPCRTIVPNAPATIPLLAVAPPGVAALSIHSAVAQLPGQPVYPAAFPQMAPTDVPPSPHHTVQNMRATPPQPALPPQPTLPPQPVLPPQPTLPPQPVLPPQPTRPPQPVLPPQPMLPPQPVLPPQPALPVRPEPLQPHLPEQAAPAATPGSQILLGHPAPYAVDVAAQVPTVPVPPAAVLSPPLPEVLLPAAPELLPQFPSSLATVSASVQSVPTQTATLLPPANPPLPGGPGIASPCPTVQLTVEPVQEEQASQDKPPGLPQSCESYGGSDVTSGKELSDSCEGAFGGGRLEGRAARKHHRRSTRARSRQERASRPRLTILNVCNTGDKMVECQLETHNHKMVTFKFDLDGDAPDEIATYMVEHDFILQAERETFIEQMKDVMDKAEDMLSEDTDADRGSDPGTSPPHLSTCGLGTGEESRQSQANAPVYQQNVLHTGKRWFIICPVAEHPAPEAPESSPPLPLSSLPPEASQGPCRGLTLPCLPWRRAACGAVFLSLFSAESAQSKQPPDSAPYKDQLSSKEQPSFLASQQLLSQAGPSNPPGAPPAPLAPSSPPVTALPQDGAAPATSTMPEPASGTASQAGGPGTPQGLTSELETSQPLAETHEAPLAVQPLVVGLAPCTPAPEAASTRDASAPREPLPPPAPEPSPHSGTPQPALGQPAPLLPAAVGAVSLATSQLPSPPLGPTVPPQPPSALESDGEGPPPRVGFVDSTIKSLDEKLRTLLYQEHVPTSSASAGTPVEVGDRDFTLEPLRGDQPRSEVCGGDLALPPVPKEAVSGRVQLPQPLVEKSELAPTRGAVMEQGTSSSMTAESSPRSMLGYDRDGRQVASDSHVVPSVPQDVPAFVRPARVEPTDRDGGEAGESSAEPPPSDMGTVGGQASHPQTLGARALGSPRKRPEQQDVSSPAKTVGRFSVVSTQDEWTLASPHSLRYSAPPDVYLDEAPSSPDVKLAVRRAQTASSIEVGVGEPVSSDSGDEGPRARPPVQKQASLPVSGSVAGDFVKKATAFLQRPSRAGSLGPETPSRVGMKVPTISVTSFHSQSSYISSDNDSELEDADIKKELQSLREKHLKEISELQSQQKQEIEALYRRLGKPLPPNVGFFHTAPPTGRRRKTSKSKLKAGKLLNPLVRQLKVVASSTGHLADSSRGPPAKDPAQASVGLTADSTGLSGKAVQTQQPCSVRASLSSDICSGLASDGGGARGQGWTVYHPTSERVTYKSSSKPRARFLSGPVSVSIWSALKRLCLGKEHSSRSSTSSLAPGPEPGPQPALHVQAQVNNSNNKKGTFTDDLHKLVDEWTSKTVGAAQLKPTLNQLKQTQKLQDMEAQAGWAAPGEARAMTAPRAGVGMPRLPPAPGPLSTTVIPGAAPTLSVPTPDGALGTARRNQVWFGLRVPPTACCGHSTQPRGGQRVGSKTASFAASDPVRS
Casein kinase II subunit alpha (Homo sapiens), sequence (P68400 whole entry, looked up): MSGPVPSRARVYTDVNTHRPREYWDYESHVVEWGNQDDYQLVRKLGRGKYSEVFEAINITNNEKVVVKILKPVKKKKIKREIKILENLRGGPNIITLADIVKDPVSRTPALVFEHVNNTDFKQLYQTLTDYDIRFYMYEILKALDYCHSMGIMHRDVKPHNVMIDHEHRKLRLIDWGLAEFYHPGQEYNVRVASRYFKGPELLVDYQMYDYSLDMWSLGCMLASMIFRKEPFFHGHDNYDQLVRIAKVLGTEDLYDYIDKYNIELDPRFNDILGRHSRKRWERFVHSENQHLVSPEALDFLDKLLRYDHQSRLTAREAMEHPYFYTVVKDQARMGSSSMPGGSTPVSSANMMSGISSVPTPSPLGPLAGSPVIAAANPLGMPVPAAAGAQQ
Aurora kinase B (Homo sapiens), sequence (Q96GD4 whole entry, canonical isoform): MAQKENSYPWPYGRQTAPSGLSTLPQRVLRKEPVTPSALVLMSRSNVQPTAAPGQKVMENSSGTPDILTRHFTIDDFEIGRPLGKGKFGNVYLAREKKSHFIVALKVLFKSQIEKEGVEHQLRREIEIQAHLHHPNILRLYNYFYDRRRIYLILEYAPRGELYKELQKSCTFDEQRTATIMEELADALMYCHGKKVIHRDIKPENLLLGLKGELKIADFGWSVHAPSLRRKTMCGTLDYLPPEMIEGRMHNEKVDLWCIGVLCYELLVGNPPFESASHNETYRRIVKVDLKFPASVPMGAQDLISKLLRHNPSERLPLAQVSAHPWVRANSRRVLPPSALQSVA
Tyrosine-protein kinase Blk (Homo sapiens), sequence (P51451 2-505 limits assumed): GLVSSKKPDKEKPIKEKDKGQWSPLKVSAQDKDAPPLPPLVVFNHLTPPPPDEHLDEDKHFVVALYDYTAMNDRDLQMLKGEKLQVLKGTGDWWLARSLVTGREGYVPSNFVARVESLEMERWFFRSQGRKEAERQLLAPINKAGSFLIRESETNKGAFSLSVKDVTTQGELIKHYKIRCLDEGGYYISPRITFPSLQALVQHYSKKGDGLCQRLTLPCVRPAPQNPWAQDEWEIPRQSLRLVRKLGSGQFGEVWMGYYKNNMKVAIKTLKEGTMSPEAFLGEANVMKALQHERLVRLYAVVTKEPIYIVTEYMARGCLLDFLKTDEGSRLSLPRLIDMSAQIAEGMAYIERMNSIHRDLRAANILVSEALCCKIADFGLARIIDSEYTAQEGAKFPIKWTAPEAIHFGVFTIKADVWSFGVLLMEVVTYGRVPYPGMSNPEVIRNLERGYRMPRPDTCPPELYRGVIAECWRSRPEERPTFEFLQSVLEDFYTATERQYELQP
Glycogen synthase kinase-3 beta (Homo sapiens), sequence (P49841 whole entry, looked up): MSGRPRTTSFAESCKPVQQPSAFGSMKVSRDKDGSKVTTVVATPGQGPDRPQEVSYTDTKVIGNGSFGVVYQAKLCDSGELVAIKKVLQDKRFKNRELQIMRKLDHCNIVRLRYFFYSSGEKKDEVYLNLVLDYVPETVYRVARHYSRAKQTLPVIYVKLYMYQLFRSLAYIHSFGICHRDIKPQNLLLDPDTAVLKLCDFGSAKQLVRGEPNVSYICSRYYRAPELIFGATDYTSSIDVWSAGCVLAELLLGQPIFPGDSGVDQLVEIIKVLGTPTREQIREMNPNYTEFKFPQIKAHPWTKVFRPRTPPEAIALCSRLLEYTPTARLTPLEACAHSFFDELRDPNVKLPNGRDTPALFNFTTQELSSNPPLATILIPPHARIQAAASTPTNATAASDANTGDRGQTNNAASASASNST
Wee1-like protein kinase (Homo sapiens), sequence (P30291 whole entry, looked up): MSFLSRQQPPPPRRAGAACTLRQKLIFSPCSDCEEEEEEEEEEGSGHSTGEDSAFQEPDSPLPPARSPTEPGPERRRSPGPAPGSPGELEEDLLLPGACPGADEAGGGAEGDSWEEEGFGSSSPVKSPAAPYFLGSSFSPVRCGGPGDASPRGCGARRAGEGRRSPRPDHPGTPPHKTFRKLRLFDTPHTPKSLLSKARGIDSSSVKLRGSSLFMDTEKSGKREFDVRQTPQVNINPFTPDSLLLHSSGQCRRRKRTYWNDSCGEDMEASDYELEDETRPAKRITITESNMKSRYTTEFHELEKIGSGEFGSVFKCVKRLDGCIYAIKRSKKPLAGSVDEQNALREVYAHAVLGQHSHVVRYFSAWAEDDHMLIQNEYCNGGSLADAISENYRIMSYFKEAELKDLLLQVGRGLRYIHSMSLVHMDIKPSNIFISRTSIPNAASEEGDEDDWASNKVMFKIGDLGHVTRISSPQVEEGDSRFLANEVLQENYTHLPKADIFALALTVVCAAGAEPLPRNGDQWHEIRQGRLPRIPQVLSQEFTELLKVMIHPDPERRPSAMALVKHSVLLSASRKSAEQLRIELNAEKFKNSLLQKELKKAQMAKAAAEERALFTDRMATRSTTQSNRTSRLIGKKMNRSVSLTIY

CCN1CCN(Cc2ccc(NC(=O)c3ccc(C)c(/C=C/c4cnc5[nH]ccc5c4OC)c3)cc2C(F)(F)F)CC1
residual activity [1]: 0.25%
inhibition [2]: 5.4%

CCN1CCN(Cc2ccc(NC(=O)c3ccc(C)c(Oc4ccnc5[nH]ccc45)c3)cc2C(F)(F)F)CC1
inhibition [3]: 2.9%
inhibition [4]: -2.8%
inhibition [5]: 0.9%
inhibition [6]: inactive
inhibition [7]: -7.6%
inhibition [8]: 1.2%
inhibition [9]: -9.4%
inhibition [10]: inactive
inhibition [11]: inactive
inhibition [12]: inactive
inhibition [13]: 0.2%

CNc1cc(Oc2cc(C(=O)Nc3cc(N4CCN(C)CC4)cc(C(F)(F)F)c3)ccc2C)ncn1
inhibition [14]: 2.7%
inhibition [15]: -6.9%
inhibition [16]: 2.5%
inhibition [17]: 0.6%
inhibition [18]: -5%
